Tests used:
[1] = tested on: Nrf2; assay: Nrf2 immunohistochemistry of spinal cord tissues in MOG 35-55 induced EAE; format: in vivo; details: EAE mice, oral gavage twice a day from day 3 p.i., DMF 5 or 15 mg/kg, MMF 15 mg/kg
Protocol: For induction of EAE, mice received s.c. injections in the flanks and tail base of 50 μg MOG 35-55 peptide in PBS emulsified in an equal volume of complete Freund's adjuvant (CFA) containing Mycobacterium tuberculosis H37RA (Difco, Detroit Mich., USA) at a final concentration of 0.5 mg/ml. Two injections of pertussis toxin (List Biological Laboratories Inc., California, USA; […] i.p) were given on days 0 and 2.
DMF and MMF was diluted in 200 μl 0.08% Methocel/H2O as vehicle and administered by oral gavage starting from day 3 post immunization (p.i) until termination. Each treatment group consisted of 8 animals: vehicle alone as a negative control, 5 mg/kg body weight DMF twice a day, 15 mg/kg body weight DMF twice a day, 15 mg/kg body weight MMF twice a day. The compounds were obtained via Fumapharm AG. Oral gavage was used to ensure exact dosing and to avoid compound degradation.
Spinal cord tissues were fixed in 4% paraformaldehyde and embedded in paraffin. […]
Immunohistochemistry was performed using the Dako autostainer as follows. […] The rabbit anti Nrf2 antibody C-20 (sc-722, Santa Cruz Biotechnology) was added at a 1:250 dilution in Dako Diluent with Background Reducing Components (Dako # S3022) C-20 antibody was detected using the Envision anti rabbit labeled polymer-HRP (Dako #K4003) and DAB (Vector Labs #SK-4100) was used as the chromogenic substrate. […]

[2] = tested on: Nrf2; assay: Western blot of Nrf2 and NQO1 in DLD1 cells treated with DMF or MMF; format: cell-based, human; details: DLD1 cells in culture; 5, 15, or 50 μM; 16 hours
Protocol: Human colon carcinoma DLD1 cells were treated with DMF or MMF at indicated concentrations (5, 15, or 50 μM) for 16 hours, rinsed with PBS, and harvested into reducing SDS sample buffer. The lysates were subjected to SDS PAGE and the separated proteins were electrophoretically transferred onto nitrocellulose membranes for Western blot analysis. To detect Nrf2 and NQO1, the membranes were incubated with the respective primary antibodies overnight at 4° C., washed, and incubated with peroxidase-conjugated secondary antibodies followed by the chemiluminescent peroxidase substrate. Detection of the target protein band luminescence and image acquisition were done using CCD-equipped imaging station Kodak2000R.

[3] = tested on: Nrf2; assay: RNAi (siRNA Nrf2/Keap1) experiment in DLD1 cells stimulated with DMF, Western blot of Nrf2 and NQO1; format: cell-based, human; details: 30 μM DMF for 40 hours
Protocol: DLD1 cells were grown in MEM supplemented with 10% fetal bovine serum. The cells were transfected with the indicated siRNA's using the Lipofectamine reagent (Invitrogen) according to the manufacturer's instructions and 30 hrs later stimulated with 30 μM DMF for 40 hours. The cells were harvested and processed for Western blotting analysis of Nrf2 and NQO1 levels as described in Example 1. Sources and the identity of reagents used in Examples 1 and 2 are specified Table 3 below: […]

Structure (SMILES)	activation of Nrf2 in vivo (Nrf2 immunostaining, morphometric analysis, FIGS. 3 and 4) [1]	activation of Nrf2 (Nrf2 and NQO1 protein levels, Western blot, FIG. 1) [2]	DMF-induced upregulation of NQO1, dependence on Nrf2 (FIG. 2) ([3]; DLD1 cells transfected with Nrf2 or Keap1 siRNA)	Nrf2 agonism: cellular accumulation of Nrf2 and Nrf2 target gene expression (FIG. 2) ([3]; DLD1 cells)
COC(=O)/C=C/C(=O)OC [DMF]	activation of Nrf2 in vivo	potent activators of Nrf2	upregulation of NQO1 requires Nrf2	acts as an Nrf2 agonist
COC(=O)/C=C/C(=O)O [MMF]	activation of Nrf2 in vivo	potent activators of Nrf2		
